Measured values: patent US9771394B2, “Antimicrobial polymyxins for treatment of bacterial infections” (priority 2014, dated 2017)
Where two headings read alike, the source gives them in different places. Starred links: 1 amine or outer side, 2 acyl side, 3 side chain; linkers in the order of their positions; H or OH if unused. Positions of bridges follow the written chain, without caps; N, C: chain ends. Non-standard residues stand in square brackets, D forms with d. Residues, ends and D or L forms follow the SMILES beside them. ξ: configuration not given here. *: point of attachment. X8 = NCC[C@H](OC(=O)Cc1ccc(-c2ccccc2)cc1)C(=O)*; X6 = NCC[C@H](OC(=O)c1ccc(-c2ccccc2)cc1)C(=O)*; X9 = CCC(C)(C)C(=O)OCCC(=O)O[C@@H](CCN)C(=O)*; X3 = CCCCCCCC(=O)O[C@@H](CCN)C(=O)*; X11 = CCCCOP(=O)(CC(=O)*)OCCCC; Thr(3ξ) = CC(O)[C@H](N)C(=O)O; X10 = O=C(C1CNCCN1[*:1])[*:2]; X7 = CC(=O)O[C@@H](CCN)C(=O)*; X1 = CCC(C)(C)C(=O)OCCC(=O)*; X2 = CCCC(C)OC(=O)CCC(=O)*; Dab = NCC[C@H](N)C(=O)O; X4 = CCCCOC(=O)CCC(=O)*; Dap = NC[C@H](N)C(=O)O

What was measured:
E. coli WECO 1003 = type: cell-based, Escherichia coli
Excerpt: (§1) In vitro activity of compounds provided herein may be assessed by standard testing procedures such as the determination of minimum inhibitory concentration (MIC, μg/mL) just as described in “Methods for Dilution Antimicrobial Susceptibility Tests for Bacteria That Grow Aerobically; Approved Standard—Ninth Edition,” published in 2012 by the Clinical and Laboratory Standards Institute, Wayne, Pa., USA. Thus, bacterial colonies grown overnight on Mueller-Hinton Agar plate were selected and suspended in sterile saline to a turbidity of about 80% transmittance, as measured by a spectrophotometer. The suspension was diluted 200-fold with cation-adjusted Mueller-Hinton broth to serve as the inoculum for testing. Two-fold serial dilutions of the test compound were performed in 96-well master plate to arrive at desired concentration. Samples of 10 microliter from each well of the master plate were transferred into respective wells of 96-well assay plate. Bacterial inoculum (90 microliter) was introduced into each well of the assay plate. The assay plate was placed in the incubator at 35° C. for about 24 h (without agitation) followed by the MIC determination. MIC values were determined based on the presence or absence of bacterial growth in wells at the given test agent concentration. MIC value is defined as the lowest concentration of test antibiotic that prevents visible bacterial growth.
(§2) The useful activity of exemplary compounds described herein against Gram-negative pathogens Pseudomonas aeruginosa, Escherichia coli, or Klebsiela pneumoniae is illustrated by the MIC data of Table 1.

K. pneumoniae KPN1004 = type: cell-based, Klebsiela pneumoniae
Excerpt: as §1, §2

P. aeruginosa PAE 1001 = type: cell-based, Pseudomonas aeruginosa
Excerpt: as §1, §2

P. aeruginosa [1] = assay: P. aeruginosa thigh infection mouse model, IV dosing; type: in vivo, Pseudomonas aeruginosa; details: CFU change at 12 h vs no treatment control, PMB values in parenthesis side-by-side
Excerpt: (§3) A lower ED50 value indicates a higher therapeutic efficacy of the drug. The number of surviving animals (from the total number of infected animals used at a given drug dose) is another indicator of efficacy. […] In thigh and lung infection models, a greater reduction in the bacterial colony-forming units (CFU) indicates stronger beneficial therapeutic effect (more bacterial eradication), while a lower CFU reduction or an increase in CFU value indicates a lower effect (less bacterial eradication), or an absence of the therapeutic effect.

[2] = Stability in human plasma at 37° C.; type: in vitro ADME; details: for remaining at 1 h, 25 μM / remaining at 4 h, 25 μM: human, plasma
Description: Exemplary compounds of this invention were tested for stability in human plasma at 37° C., replicating in vivo conditions of mammalian blood. Plasma stability for select compounds was performed as follows. Human plasma (K2 EDTA) was obtained from Bioreclamation. The assay was carried out in 96-well microtiter plates. Test compounds were incubated in duplicate at 37° C. in the presence of plasma. Reaction mixtures (25 μL) contained a final concentration of 25 μM test compound. The extent of metabolism was calculated as the disappearance of the test compound over time. Eucatropine was included as a positive control to verify assay performance. At each given time point, 100 μL of quench solution (100% MeCN with 0.1% HCOOH) with internal standard was transferred to each well. Plates were sealed, vortexed, and centrifuged at 4° C. for 15 minutes at 4,000 rpm. The supernatant was transferred to fresh plates for LC/MS/MS analysis. The formation of a potential metabolite was monitored in all samples. The samples were analyzed on LC/MS/MS using an AB Sciex API 4000 instrument, coupled to a Shimadzu LC-20AD LC Pump system. Analytical samples were separated using a Waters Atlantis T3 dC18 reverse phase HPLC column (20 mm×2.1 mm) at […] a flow rate of 0.5 mL/min, eluting with 0.1% aq. HCOOH and 0.1% HCOOH in MeCN (using gradient from 2% to 98% of the latter). Remaining test compounds were quantified via MS/MS ion current.

E. coli = E. coli septicemia (systemic) mouse model, IV dosing; type: in vivo, Escherichia coli; details: PMB values are side-by-side comparator
Excerpt: as §3

P. aeruginosa [3] = assay: P. aeruginosa lung infection (pneumonia) mouse model, SC dosing; type: in vivo, Pseudomonas aeruginosa
Excerpt: as §3

human HK-2 cell = assay: Human HK-2 cell cytotoxicity assay (in vitro nephrotoxicity); type: cell-based
Excerpt: Nephrotoxicity of polymyxins could be determined in vitro using human renal […] (HK-2) cytotoxicity assay, analogously to that described, for example, by Keirstead et al. in Toxicol. Sci., 2014, vol. 137, pp. 278-291. In vivo, nephrotoxicity could be determined using urine biomarker assays, such as clinically validated neutrophil gelatinase-associated lipocalin (NGAL) assay described, for example by Devarajan in Scand. J. Clin. Lab. Invest. Suppl., 2008, vol. […], pp. 89-94.

[4] = 35° C., about 24 h, cation-adjusted Mueller-Hinton broth

Row | SMILES | Antibacterial activity (MIC) E. coli WECO 1003 (E. coli WECO 1003; WECO 1003, 24 h) [µg/mL] | Antibacterial activity (MIC) K. pneumoniae KPN1004 (K. pneumoniae KPN1004; KPN1004, 24 h) [µg/mL] | Antibacterial activity (MIC) P. aeruginosa PAE 1001 (P. aeruginosa PAE 1001; PAE 1001, 24 h) [µg/mL] | further results
1 | CC(C)C[C@@H]1NC(=O)[C@@H](Cc2ccccc2)NC(=O)[C@H](CCN)NC(=O)[C@@H](NC(=O)[C@H](CCN)NC(=O)[C@@H](NC(=O)[C@H](CCN)OC(=O)Cc2ccc(-c3ccccc3)cc2)C(C)O)CCNC(=O)[C@H](C(C)O)NC(=O)[C@H](CCN)NC(=O)[C@H](CCN)NC1=O (stereo partly drawn) [Example 2] (X8-[Thr(3ξ)][Dab][Dab][Dab][dF]L[Dab][Dab][Thr(3ξ)]; lactam 3-C) | 8 | 2 | 4 | –
2 | CC(C)C[C@@H]1NC(=O)[C@@H](Cc2ccccc2)NC(=O)[C@H](CCN)NC(=O)[C@@H](NC(=O)[C@H](CCN)NC(=O)[C@@H](NC(=O)[C@H](CCN)OC(=O)c2ccc(-c3ccccc3)cc2)C(C)O)CCNC(=O)[C@H](C(C)O)NC(=O)[C@H](CCN)NC(=O)[C@H](CCN)NC1=O (stereo partly drawn) [Example 3] (X6-[Thr(3ξ)][Dab][Dab][Dab][dF]L[Dab][Dab][Thr(3ξ)]; lactam 3-C) | 4 | 4 | 4 | –
3 | CCCCOC(=O)CCC(=O)N[C@@H](CCN)C(=O)N[C@H](C(=O)N[C@@H](CCN)C(=O)N[C@H]1CCNC(=O)[C@H](C(C)O)NC(=O)[C@H](CCN)NC(=O)[C@H](CCN)NC(=O)[C@H](CC(C)C)NC(=O)[C@@H](Cc2ccccc2)NC(=O)[C@H](CCN)NC1=O)C(C)O (stereo partly drawn) [Example 7] (X4-[Dab][Thr(3ξ)][Dab][Dab][Dab][dF]L[Dab][Dab][Thr(3ξ)]; lactam 4-C) | 4 | 2 | 4 | P. aeruginosa Thigh model, IV dosing ΔlogCFU at 5 mg/kg (P. aeruginosa [1]): −0.50; remaining at 1 h, 25 μM [2]: 49%; remaining at 4 h, 25 μM [2]: 15%
4 | CCC(C)(C)C(=O)OCCC(=O)N[C@@H](CCN)C(=O)N[C@H](C(=O)N[C@@H](CCN)C(=O)N[C@H]1CCNC(=O)[C@H](C(C)O)NC(=O)[C@H](CCN)NC(=O)[C@H](CCN)NC(=O)[C@H](CC(C)C)NC(=O)[C@@H](Cc2ccccc2)NC(=O)[C@H](CCN)NC1=O)C(C)O (stereo partly drawn) [Example 12] (X1-[Dab][Thr(3ξ)][Dab][Dab][Dab][dF]L[Dab][Dab][Thr(3ξ)]; lactam 4-C) | 2 | 2 | 4 | E. coli Systemic model, IV dosing ED50 (E. coli): 2.5 mg/kg; number (A) of surviving animals out of total (B) mice, A/B (E. coli; at 5 mg/kg): 3/6; P. aeruginosa Thigh model, IV dosing ΔlogCFU at 5 mg/kg (P. aeruginosa [1]): −1.44; remaining at 1 h, 25 μM [2]: 67%; remaining at 4 h, 25 μM [2]: 31%; Relative CFU count, vs. PMB (P. aeruginosa [3]; mouse lung infection, 10 mg/kg): 1.7 × 10^−5; P. aeruginosa Lung infection model ΔlogCFU at 10 mg/kg (P. aeruginosa [3]; mouse, CFU change at 24 h vs starting inoculum): −2.15; HK-2 cytotoxicity class (human HK-2 cell): Class 4; IC50 (human HK-2 cell): > 200 µM
5 | CCCCOP(=O)(CC(=O)N[C@@H](CCN)C(=O)N[C@H](C(=O)N[C@@H](CCN)C(=O)N[C@H]1CCNC(=O)[C@H](C(C)O)NC(=O)[C@H](CCN)NC(=O)[C@H](CCN)NC(=O)[C@H](CC(C)C)NC(=O)[C@@H](Cc2ccccc2)NC(=O)[C@H](CCN)NC1=O)C(C)O)OCCCC (stereo partly drawn) [Example 30] (X11-[Dab][Thr(3ξ)][Dab][Dab][Dab][dF]L[Dab][Dab][Thr(3ξ)]; lactam 4-C) | – | – | – | Antibacterial activity (MIC) E. coli WECO 1003 (E. coli WECO 1003; [4]): 2 µg/mL; Antibacterial activity (MIC) K. pneumoniae KPN1004 (K. pneumoniae KPN1004; [4]): 4 µg/mL; Antibacterial activity (MIC) P. aeruginosa PAE 1001 (P. aeruginosa PAE 1001; [4]): 2 µg/mL
6 | CCCCCCCC(=O)O[C@@H](CCN)C(=O)N[C@H](C(=O)N[C@@H](CCN)C(=O)N[C@H]1CCNC(=O)[C@H](C(C)O)NC(=O)[C@H](CCN)NC(=O)[C@H](CCN)NC(=O)[C@H](CC(C)C)NC(=O)[C@@H](Cc2ccccc2)NC(=O)[C@H](CCN)NC1=O)C(C)O (stereo partly drawn) [Reference Example 1, reference compound] (X3-[Thr(3ξ)][Dab][Dab][Dab][dF]L[Dab][Dab][Thr(3ξ)]; lactam 3-C) | 4 | 2 | 8 | P. aeruginosa Thigh model, IV dosing ΔlogCFU at 5 mg/kg (P. aeruginosa [1]): −1.92; formation of the expected metabolite (compound of Example 44) by MS analysis [2]: no formation; metabolism in human plasma [2]: no discernable metabolism; remaining at 4 h, 25 μM [2]: 100%

Continued, in another order:

Row | Antibacterial activity (MIC) E. coli WECO 1003 (E. coli WECO 1003; WECO 1003, 24 h) [µg/mL] | Antibacterial activity (MIC) K. pneumoniae KPN1004 (K. pneumoniae KPN1004; KPN1004, 24 h) [µg/mL] | Antibacterial activity (MIC) P. aeruginosa PAE 1001 (P. aeruginosa PAE 1001; PAE 1001, 24 h) [µg/mL] | SMILES | further results
7 | 8 | 8 | 8 | CCCC(C)OC(=O)CCC(=O)N1CCNCC1C(=O)N[C@H](C(=O)N[C@@H](CCN)C(=O)N[C@H]1CCNC(=O)[C@H](C(C)O)NC(=O)[C@H](CCN)NC(=O)[C@H](CCN)NC(=O)[C@H](CC(C)C)NC(=O)[C@@H](Cc2ccccc2)NC(=O)[C@H](CCN)NC1=O)C(C)O (stereo partly drawn) [Example 31] (X2-[X10][Thr(3ξ)][Dab][Dab][Dab][dF]L[Dab][Dab][Thr(3ξ)]; lactam 4-C) | –
8 | 4 | 4 | 4 | CCC(C)(C)C(=O)OCCC(=O)O[C@@H](CCN)C(=O)N[C@H](C(=O)N[C@@H](CCN)C(=O)N[C@H]1CCNC(=O)[C@H](C(C)O)NC(=O)[C@H](CCN)NC(=O)[C@H](CCN)NC(=O)[C@H](CC(C)C)NC(=O)[C@@H](Cc2ccccc2)NC(=O)[C@H](CCN)NC1=O)C(C)O (stereo partly drawn) [Example 34] (X9-[Thr(3ξ)][Dab][Dab][Dab][dF]L[Dab][Dab][Thr(3ξ)]; lactam 3-C) | –
9 | 1 | 4 | 4 | CCC(C)(C)C(=O)OCCC(=O)N[C@@H](CN)C(=O)N[C@H](C(=O)N[C@@H](CCN)C(=O)N[C@H]1CCNC(=O)[C@H](C(C)O)NC(=O)[C@H](CCN)NC(=O)[C@H](CCN)NC(=O)[C@H](CC(C)C)NC(=O)[C@@H](Cc2ccccc2)NC(=O)[C@H](CCN)NC1=O)C(C)O (stereo partly drawn) [Example 35] (X1-[Dap][Thr(3ξ)][Dab][Dab][Dab][dF]L[Dab][Dab][Thr(3ξ)]; lactam 4-C) | –
10 | 8 | >32 | 8 | CC(=O)O[C@@H](CCN)C(=O)N[C@H](C(=O)N[C@@H](CCN)C(=O)N[C@H]1CCNC(=O)[C@H](C(C)O)NC(=O)[C@H](CCN)NC(=O)[C@H](CCN)NC(=O)[C@H](CC(C)C)NC(=O)[C@@H](Cc2ccccc2)NC(=O)[C@H](CCN)NC1=O)C(C)O (stereo partly drawn) [Example 43] (X7-[Thr(3ξ)][Dab][Dab][Dab][dF]L[Dab][Dab][Thr(3ξ)]; lactam 3-C) | –
11 | >32 | >32 | >32 | CC(C)C[C@@H]1NC(=O)[C@@H](Cc2ccccc2)NC(=O)[C@H](CCN)NC(=O)[C@@H](NC(=O)[C@H](CCN)NC(=O)[C@@H](N)[C@@H](C)O)CCNC(=O)[C@H]([C@@H](C)O)NC(=O)[C@H](CCN)NC(=O)[C@H](CCN)NC1=O [Reference Example 40, Polymyxin B nonapeptide, reference compound] (H-T[Dab][Dab][Dab][dF]L[Dab][Dab]T; lactam 3-C) | HK-2 cytotoxicity class (human HK-2 cell): Class 4; IC50 (human HK-2 cell): > 200 µM
